# Laboratory results as given in ChEMBL document CHEMBL1201862, “PubChem BioAssay data set” (2004).
#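 48-hour exposure; five concentrations; linearly interpolated endpoints. GI50 = concentration required for 50% inhibition of growth.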 Calls of active or inactive are those of the source. No stated cut-off is given here; in the data, active = GI50 up to about 1.1 µM and inactive = higher.
# Assays:
# Assay in all cases: DTP human tumour cell line panel, 48 h
# [1] = system: MDA-N
# [2] = system: SK-MEL-28
# [3] = system: Malme-3M
# [4] = system: SR
# [5] = system: MDA-MB-231
# [6] = system: SK-MEL-2
# [7] = system: SF-268
# [8] = system: UACC-62
# [9] = system: DU-145
# [10] = system: MOLT-4
# [11] = system: Hs-578T
# [12] = system: PC-3
# [13] = system: SNB-75
# [14] = system: NCI-H226
# [15] = system: BT-549
# [16] = system: TK-10
# [17] = system: HL-60
# [18] = system: HCT-15
# [19] = system: NCI/ADR-RES
# [20] = system: NCI-H522
SMILES,GI50 [1],GI50 [2],GI50 [3],GI50 [4],GI50 [5],GI50 [6],GI50 [7],GI50 [8],GI50 [9],GI50 [10],GI50 [11],GI50 [12],GI50 [13],GI50 [14],GI50 [15],GI50 [16],GI50 [17],GI50 [18],GI50 [19],GI50 [20]
CCN1CCCn2c(=O)[nH]c3cc(Br)cc1c32,> 100 µM (inactive),> 100 µM (inactive),> 100 µM (inactive),> 100 µM (inactive),38.4 µM (inactive),> 100 µM (inactive),24 µM (inactive),69.8 µM (inactive),> 100 µM (inactive),60.8 µM (inactive),0.394 µM (active),> 100 µM (inactive),16.7 µM (inactive),55.5 µM (inactive),14.6 µM (inactive),51.6 µM (inactive),> 100 µM (inactive),> 100 µM,> 100 µM (inactive),–
COc1cc(/C=C2\N=C(c3ccccc3)N(c3nc4ccccc4s3)C2=O)cc(OC)c1OC,15.3 µM (inactive),33 µM (inactive),–,11.7 µM (inactive),40.3 µM (inactive),90.8 µM (inactive),26.5 µM (inactive),–,34.1 µM (inactive),11.7 µM (inactive),17.3 µM (inactive),50.5 µM (inactive),23.1 µM (inactive),> 100 µM (inactive),17.5 µM (inactive),> 100 µM (inactive),60.5 µM (inactive),30.3 µM,20.4 µM (inactive),13.4 µM (inactive)
C=CCN1C(=O)/C(=C/c2ccccc2)N=C1SC1OC(COC(C)=O)C(OC(C)=O)C(OC(C)=O)C1OC(C)=O (stereo unspecified),29 µM (inactive),26.1 µM (inactive),19.5 µM (inactive),4.86 µM (inactive),18.6 µM (inactive),18.5 µM (inactive),21.4 µM (inactive),14.4 µM (inactive),26.6 µM (inactive),19.9 µM (inactive),25.5 µM (inactive),16.5 µM (inactive),21.9 µM (inactive),–,28.6 µM (inactive),72.8 µM (inactive),26.5 µM (inactive),28.1 µM,26.2 µM (inactive),16.3 µM (inactive)
Cc1cc(C)c(S(=O)(=O)N[C@@H](/C=C(\Br)CO)C(C)C)c(C)c1,26.1 µM (inactive),24.9 µM (inactive),21.5 µM (inactive),25.1 µM (inactive),23.6 µM (inactive),16.1 µM (inactive),30.7 µM (inactive),13.2 µM (inactive),34.5 µM (inactive),24.2 µM (inactive),22.5 µM (inactive),17.2 µM (inactive),45 µM (inactive),–,40.3 µM (inactive),34.5 µM (inactive),17.9 µM (inactive),37.8 µM,36.5 µM (inactive),17.7 µM (inactive)
C[C@@H]1CC[C@H]2C(C)(C)[C@H]3C[C@@]12CC[C@@]3(C)O [CEDROL],> 100 µM (inactive),60 µM (inactive),–,18.7 µM (inactive),> 100 µM (inactive),> 100 µM (inactive),> 100 µM (inactive),> 100 µM (inactive),> 100 µM (inactive),35.5 µM (inactive),> 100 µM (inactive),> 100 µM (inactive),> 100 µM (inactive),77.1 µM (inactive),> 100 µM (inactive),> 100 µM (inactive),18.7 µM (inactive),59.3 µM,> 100 µM (inactive),45.9 µM (inactive)
S=P(N1CC1)(N1CC1)N1CC1 [THIOTEPA],161 µM (inactive),186 µM (inactive),141 µM (inactive),–,274 µM (inactive),220 µM (inactive),39.4 µM (inactive),14.7 µM (inactive),32.1 µM (inactive),7.69 µM (inactive),361 µM (inactive),217 µM (inactive),97.3 µM (inactive),110 µM (inactive),175 µM (inactive),333 µM (inactive),7.45 µM (inactive),149 µM,79.1 µM (inactive),101 µM (inactive)
CO[C@@]12C[C@@H](C)[C@]34O[C@H]3C[C@]3(C)O[C@]43CC1=C(C)C(=O)O2,> 100 µM (inactive),> 100 µM (inactive),> 100 µM (inactive),–,> 100 µM (inactive),> 100 µM (inactive),> 100 µM (inactive),> 100 µM (inactive),> 100 µM (inactive),< 0.01 µM (active),> 100 µM (inactive),> 100 µM (inactive),–,> 100 µM (inactive),> 100 µM (inactive),> 100 µM (inactive),–,> 100 µM,> 100 µM (inactive),> 100 µM (inactive)
O=C1Nc2ccccc2/C1=C/c1ccccc1,17.7 µM (inactive),20.8 µM (inactive),–,14.4 µM (inactive),17.8 µM (inactive),14.3 µM (inactive),15.6 µM (inactive),13.9 µM (inactive),13.8 µM (inactive),15.6 µM (inactive),24.1 µM (inactive),14.6 µM (inactive),12.9 µM (inactive),17.1 µM (inactive),16.4 µM (inactive),21.7 µM (inactive),14.6 µM (inactive),14 µM,22.8 µM (inactive),15.8 µM (inactive)
CCOC(=O)c1c(NC(=O)c2cccs2)sc2c1CCC2,> 100 µM (inactive),–,–,73.3 µM (inactive),> 100 µM (inactive),> 100 µM (inactive),> 100 µM (inactive),> 100 µM (inactive),> 100 µM (inactive),> 100 µM (inactive),> 100 µM (inactive),> 100 µM (inactive),1.22 µM (inactive),> 100 µM (inactive),> 100 µM (inactive),> 100 µM (inactive),> 100 µM (inactive),> 100 µM,> 100 µM (inactive),–
COc1ccc(OC)c(CC2CCc3nc(N)nc(N)c3C2)c1 (stereo unspecified),< 0.01 µM (active),18.8 µM (inactive),0.0334 µM (active),–,25.4 µM (inactive),23.6 µM (inactive),< 0.0192 µM (active),< 0.0133 µM (active),1.62 µM (inactive),1.52 µM (inactive),23.7 µM (inactive),0.0316 µM (active),0.828 µM (active),20.9 µM (inactive),0.146 µM (active),8.32 µM (inactive),3.58 µM (inactive),< 0.0435 µM,2.8 µM (inactive),0.774 µM (active)
CCOC(=O)c1nnn(CCCCO)c1C(=O)OCC,> 100 µM (inactive),> 100 µM (inactive),> 100 µM (inactive),> 100 µM (inactive),> 100 µM (inactive),> 100 µM (inactive),> 100 µM (inactive),> 100 µM (inactive),> 100 µM (inactive),> 100 µM (inactive),> 100 µM (inactive),> 100 µM (inactive),> 100 µM (inactive),> 100 µM (inactive),> 100 µM (inactive),> 100 µM (inactive),–,> 100 µM,> 100 µM (inactive),–
Cc1nn(C(=O)c2ccncc2)c2c1C(c1ccc(Cl)cc1)SC(=N)N2 (stereo unspecified),> 10 µM (inactive),> 10 µM (inactive),> 10 µM (inactive),> 10 µM (inactive),> 10 µM (inactive),> 10 µM (inactive),> 10 µM (inactive),> 10 µM (inactive),> 10 µM (inactive),> 10 µM (inactive),> 10 µM (inactive),> 10 µM (inactive),> 10 µM (inactive),> 10 µM (inactive),> 10 µM (inactive),> 10 µM (inactive),> 10 µM (inactive),> 10 µM,> 10 µM (inactive),–
COC(=O)/C=C/c1cc(OC)c2oc(-c3ccc(OC)c(OC)c3)c(C(=O)OC)c2c1,> 100 µM (inactive),> 100 µM (inactive),> 100 µM (inactive),> 100 µM (inactive),> 100 µM (inactive),> 100 µM (inactive),> 100 µM (inactive),> 100 µM (inactive),> 100 µM (inactive),> 100 µM (inactive),> 100 µM (inactive),> 100 µM (inactive),–,–,> 100 µM (inactive),> 100 µM (inactive),> 100 µM (inactive),> 100 µM,> 100 µM (inactive),–
Cc1cc(S(=O)(=O)Nc2nc(N)n(C)n2)c(S)cc1Cl,> 10 µM (inactive),> 10 µM (inactive),> 10 µM (inactive),–,> 10 µM (inactive),> 10 µM (inactive),> 10 µM (inactive),> 10 µM (inactive),> 10 µM (inactive),> 10 µM (inactive),> 10 µM (inactive),> 10 µM (inactive),> 10 µM (inactive),> 10 µM (inactive),> 10 µM (inactive),> 10 µM (inactive),> 10 µM (inactive),> 10 µM,> 10 µM (inactive),> 10 µM (inactive)
O=C1Nc2ccccc2/C1=C\c1c(Cl)nc2n1CCS2,15.7 µM (inactive),32.4 µM (inactive),23.7 µM (inactive),–,19 µM (inactive),14.1 µM (inactive),27.4 µM (inactive),13.5 µM (inactive),30.6 µM (inactive),30.4 µM (inactive),16.6 µM (inactive),24.5 µM (inactive),22.3 µM (inactive),–,19.5 µM (inactive),19.7 µM (inactive),16.8 µM (inactive),22.5 µM,23.6 µM (inactive),16.2 µM (inactive)
